For series [1] the following is noted: cited from earlier work.
A short description of series [2]: In vitro release study of sorafenib and everolimus PLGA microspheres (sample-and-separate method, HPLC). As to conditions: during in vitro release study.
Experimental: The in vitro release study was carried out by sample-and-separate method. Briefly, 5 mg of microsphere sample (n=3) was taken into 100 mL flask and dispersed in 50 mL of release medium (0.5% Tween 20 and 0.1% sodium azide in phosphate-buffered saline (PBS at pH 7.4)). The flasks were placed in orbital agitating incubator at 37° C. and shacked at 100 rpm. At certain time points, 40 mL medium was taken and centrifuged at 3000 rpm for 2 min. From the supernatant, 30 mL was pipetted and replaced by same amount of the fresh media. In the collected supernatant, the content of the released SOF or EVE was analyzed by high performance liquid chromatography (HPLC).
Series [3] relates to MIA PaCa-2 pancreatic cell line. The experiment in a line: In vitro cytotoxicity study, XTT assay. The format is cell-based, human. As to conditions: MIA PaCa-2 cells. As for the experimental part:
(§1) AGS cells (2×10^4 cells/well) were seeded in a 12-well plates (Corning, Millipore Sigma) with 1 mL of RPMI-1640 medium containing 10% FBS (Fetal Bovine Serum) and incubated for 1 day at 37° C. in a humidified incubator containing 5% CO2. AGS cells were allowed to proliferate for tests of in vitro antitumor activity. In triplicate wells, Group 1 (PBS), Group 2 (ISG formulation without everolimus or trametinib), Group 3 (ISG formulation with 90 μg of everolimus), Group 4 (ISG formulation with 90 μg of trametinib) and Group 5 (ISG formulation with 90 μg of everolimus and 90 μg of tramethinib), Group 6 (cell culture media without AGS cells) and Group 7 (10% ethanol in cell culture media) were added directly into chambers of the 12 well plate to examine the in vitro antitumor activity of these solutions against AGS cancer cells.
(§2) Each 12 well plate chamber was seeded with AGS cells (2×10^4 cells/well). The 12 well plates were maintained at 37° C. in a humidified incubator containing 5% CO2 for 48 hours prior to dosing. To create a drug depot at dosing time, 2 μL of each of the ISG everolimus formulation (90 μg everolimus/well), the ISG trametinib formulation (90 μg trametinib/well) and ISG everolimus-trametinib (90 μg everolimus+90 μg trametinib) formulations were added directly into the media of each corresponding plate well and maintained at 37° C. in a humidified incubator for the duration of the experiment. […]
(§3) Briefly, 100 μL of PBS solution containing the XTT substrate (50 mg/mL) was added to each 12-well plate and the plates were incubated at 37° C. for 4 h. […] The solution of each well was transferred to a 96-well plate (triplicate for wells 1 and 2 and duplicate for well 3) and read using a microplate reader (Bio-teck XLS800; Bio-Tek Instruments City of Industry, CA). The optical density of the formazan product of each well was measured at a wavelength of 450 nm and a reference wavelength of 630 nm. […]
On the technique in general: Tetrazolium dyes change colour on reduction, which living cells bring about.

Series [4] has as its system SW403 colorectal cell line. The experiment in a line: In vitro cytotoxicity study, XTT assay. The format is cell-based, human. The following applies: SW403 cells. The method, then: as §1, §2, §3
In another series the test system is NCI H441 lung cell line. Put plainly: In vitro cytotoxicity study, XTT assay. As to conditions: NCI H441 cells. The format is cell-based, human. The method, then: as §1, §2, §3
The subject of a further series is AGS cells. The experiment in a line: In vitro cytotoxicity study, XTT assay. The format is cell-based, human. As for the experimental part:
as §1, with “cells. […]” for “cells.”
as §3

For `CO[C@H]1C[C@@H]2CC[C@@H](C)[C@@](O)(O2)C(=O)C(=O)N2CCCC[C@H]2C(=O)O[C@H]([C@H](C)C[C@@H]2CC[C@@H](OCCO)[C@H](OC)C2)CC(=O)[C@H](C)/C=C(\C)[C@@H](O)[C@@H](OC)C(=O)[C@H](C)C[C@H](C)/C=C/C=C/C=C/1C` [EVE, everolimus], in series [1], the “stability of EVE as free form in aqueous solution” value is “degrade quickly in aqueous solution as free form”. The “stability of EVE inside the microsphere” value in series [2] is reported as “stable inside the microsphere”.

As for `CCO` [ethanol], the “in vitro cytotoxicity (XTT)” value in series [3] is given as “ablation with a complete cytotoxic effect on the cancer cells”; in series [4], “ablation with a complete cytotoxic effect on the cancer cells”; with NCI H441 lung cell line, “ablation with a complete cytotoxic effect on the cancer cells”; with AGS cells (24 and 72 h of exposure) it was “ablation with a complete cytotoxic effect on the cancer cells”. Further, in the series with AGS cells (10% ethanol in cell culture media, 72 h time point), the “in vitro cytotoxicity (XTT), ethanol treatment alone” value is “complete ablation and cytotoxicity of the cancer cells”.

The values above are taken from patent US12268692B2, “Combinatorial targeted therapy methods” (Postsurgical Therapeutics, Inc., priority 2020, dated 2025).
